Test: xn = mol fraction of the nth substance listed
Conditions: 100 kPa, Liquid; for viscosity: Capillary tube (Ostwald / Ubbelohde) method; for mass density: Vibrating tube method

O=C1CCCCO1 [1-oxacyclohexan-2-one] + CCCC[n+]1ccn(C)c1.O=S(=O)([N-]S(=O)(=O)C(F)(F)F)C(F)(F)F
Conditions | mass density [kg/m3] | viscosity [mPa·s]
293.15 K, x2 = 0 | 1108.53 | 3.68
293.15 K, x2 = 0.0532 | 1156.68 | 4.6
293.15 K, x2 = 0.1004 | 1196.3 | 5.91
293.15 K, x2 = 0.1504 | 1229.63 | 7.47
293.15 K, x2 = 0.1999 | 1257.2 | 8.95
293.15 K, x2 = 0.2988 | 1300.9 | 13.08
293.15 K, x2 = 0.4006 | 1337.77 | 17.95
293.15 K, x2 = 0.5005 | 1362.9 | 23.77
293.15 K, x2 = 0.5999 | 1384.82 | 30.89
293.15 K, x2 = 0.7 | 1402.18 | 37.58
293.15 K, x2 = 0.8013 | 1418.26 | 44.8
293.15 K, x2 = 0.8986 | 1429.23 | 52.57
298.15 K, x2 = 0 | 1103.96 | 3.3
298.15 K, x2 = 0.0532 | 1152.03 | 4.09
298.15 K, x2 = 0.1004 | 1191.61 | 5.26
298.15 K, x2 = 0.1504 | 1224.89 | 6.47
298.15 K, x2 = 0.1999 | 1252.42 | 7.78
298.15 K, x2 = 0.2988 | 1296.08 | 11.15
298.15 K, x2 = 0.4006 | 1332.91 | 15.14
298.15 K, x2 = 0.5005 | 1358.02 | 19.8
298.15 K, x2 = 0.5999 | 1379.92 | 25.62
298.15 K, x2 = 0.7 | 1397.27 | 31.17
298.15 K, x2 = 0.8013 | 1413.33 | 37.32
298.15 K, x2 = 0.8986 | 1424.29 | 43.18
303.15 K, x2 = 0 | 1099.44 | 2.98
303.15 K, x2 = 0.0532 | 1147.37 | 3.7
303.15 K, x2 = 0.1004 | 1186.86 | 4.58
303.15 K, x2 = 0.1504 | 1220.09 | 5.64
303.15 K, x2 = 0.1999 | 1247.58 | 6.74
303.15 K, x2 = 0.2988 | 1291.17 | 9.63
303.15 K, x2 = 0.4006 | 1327.96 | 12.92
303.15 K, x2 = 0.5005 | 1353.03 | 16.77
303.15 K, x2 = 0.5999 | 1374.9 | 21.34
303.15 K, x2 = 0.7 | 1392.22 | 25.71
303.15 K, x2 = 0.8013 | 1408.28 | 30.93
303.15 K, x2 = 0.8986 | 1419.22 | 35.78
308.15 K, x2 = 0 | 1094.83 | 2.7
308.15 K, x2 = 0.0532 | 1142.72 | 3.21
308.15 K, x2 = 0.1004 | 1182.16 | 4.08
308.15 K, x2 = 0.1504 | 1215.34 | 5.09
308.15 K, x2 = 0.1999 | 1242.79 | 6.06
308.15 K, x2 = 0.2988 | 1286.33 | 8.42
308.15 K, x2 = 0.4006 | 1323.08 | 11.04
308.15 K, x2 = 0.5005 | 1348.13 | 14.16
308.15 K, x2 = 0.5999 | 1369.99 | 18.33
308.15 K, x2 = 0.7 | 1387.29 | 21.9
308.15 K, x2 = 0.8013 | 1403.33 | 25.49
308.15 K, x2 = 0.8986 | 1414.26 | 29.16
313.15 K, x2 = 0 | 1090.27 | 2.47
313.15 K, x2 = 0.0532 | 1138.1 | 2.9
313.15 K, x2 = 0.1004 | 1177.47 | 3.67
313.15 K, x2 = 0.1504 | 1210.6 | 4.49
313.15 K, x2 = 0.1999 | 1238.01 | 5.31
313.15 K, x2 = 0.2988 | 1281.5 | 7.36
313.15 K, x2 = 0.4006 | 1318.2 | 9.61
313.15 K, x2 = 0.5005 | 1343.21 | 12.24
313.15 K, x2 = 0.5999 | 1365.03 | 15.74
313.15 K, x2 = 0.7 | 1382.31 | 18.59
313.15 K, x2 = 0.8013 | 1398.33 | 21.65
313.15 K, x2 = 0.8986 | 1409.25 | 24.7
318.15 K, x2 = 0 | 1085.71 | 2.25
318.15 K, x2 = 0.0532 | 1133.47 | 2.63
318.15 K, x2 = 0.1004 | 1172.79 | 3.24
318.15 K, x2 = 0.1504 | 1205.87 | 4.02
318.15 K, x2 = 0.1999 | 1233.25 | 4.72
318.15 K, x2 = 0.2988 | 1276.69 | 6.55
318.15 K, x2 = 0.4006 | 1313.34 | 8.49
318.15 K, x2 = 0.5005 | 1338.33 | 10.65
318.15 K, x2 = 0.5999 | 1360.13 | 13.7
318.15 K, x2 = 0.7 | 1377.38 | 15.98
318.15 K, x2 = 0.8013 | 1393.37 | 18.79
318.15 K, x2 = 0.8986 | 1404.27 | 21.14
323.15 K, x2 = 0 | 1081.16 | 2.09
323.15 K, x2 = 0.0532 | 1128.86 | 2.44
323.15 K, x2 = 0.1004 | 1168.12 | 2.96
323.15 K, x2 = 0.1504 | 1201.16 | 3.63
323.15 K, x2 = 0.1999 | 1228.6 | 4.26
323.15 K, x2 = 0.2988 | 1271.85 | 5.82
323.15 K, x2 = 0.4006 | 1308.45 | 7.49
323.15 K, x2 = 0.5005 | 1333.4 | 9.29
323.15 K, x2 = 0.5999 | 1355.18 | 11.2
323.15 K, x2 = 0.7 | 1372.41 | 13.85
323.15 K, x2 = 0.8013 | 1388.38 | 15.68
323.15 K, x2 = 0.8986 | 1399.26 | 17.85

Source: the NIST ThermoML archive (doi:10.1016/j.jct.2016.12.032)
